Results as given in PubChem BioAssay (NCI).
“And” between values parts separate entries of the source, which are not always exact repeats. Identical values can stand only once.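 96-well plates; 48 h exposure; 5 concentrations. Endpoints by linear interpolation between flanking doses. Not reached: highest tested concentration assigned. Here, GI50 denotes the concentration required for 50% inhibition of growth. TGI denotes the concentration required for complete inhibition of growth.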

How the values were obtained:
Assay in all cases: inhibition of tumour cell growth, NCI panel, 48 h
BT-549 breast = test system: BT-549 breast
DU-145 prostate = test system: DU-145 prostate
MDA-MB-231 breast = test system: MDA-MB-231 breast
MDA-MB-435 = test system: MDA-MB-435
RXF-631 renal = test system: RXF-631 renal
SNB-78 CNS = test system: SNB-78 CNS
MDA-N = test system: MDA-N

SMILES | GI50 (BT-549 breast) | TGI (BT-549 breast) | GI50 (DU-145 prostate) | TGI (DU-145 prostate) | GI50 (MDA-MB-231 breast) | TGI (MDA-MB-231 breast) | GI50 (MDA-MB-435) | TGI (MDA-MB-435) | TGI (RXF-631 renal) [µM] | TGI (SNB-78 CNS) [µM] | TGI (MDA-N) [µM]
Cc1cc(I)cc(CN(C)CCCCN2CCCCC2)c1O | 8.05 µM | 21.5 µM | 26.8 µM | > 100 µM | 16.3 µM | 43 µM | 3.5 µM | 12.9 µM | – | – | –
Cc1ccc(C(=O)/C(=C/c2ccc([N+](=O)[O-])cc2)SCc2ccc(Cl)cc2)cc1 | 1.93 µM | 4.09 µM | 5.33 µM | > 100 µM | 1.96 µM | 5.8 µM | 1.86 µM | 4.3 µM | – | – | –
O=C(Nc1ccc(Cl)c(Cl)c1)Nc1ccc(Cl)c(Cl)c1 | 1.72 µM and 4.01 µM | 5.96 µM and 31.6 µM | 4.03 µM and 4.34 µM | 14.4 µM and 16.2 µM | 1.63 µM and 1.73 µM | 3.79 µM and 3.7 µM | 3.06 µM and 2.8 µM | 11.4 µM and 8.8 µM | – | – | –
C#Cc1ccc(-n2c(/C=C/c3ccc(C(F)(F)F)cc3)nc3ncccc3c2=O)cc1 | 1.71 µM | 3.37 µM | 3.76 µM | 12.2 µM | 2.05 µM | 5.47 µM | 2.27 µM | 6.48 µM | – | – | –
COc1cc(/C=N/NC(=O)c2ccc(C(F)(F)F)nc2Nc2ccc(Cl)cc2C)ccc1O | 1.34 µM | 9.69 µM | 4.27 µM | 16.3 µM | 0.939 µM | 10.3 µM | 3.08 µM | 11 µM | – | – | –
COc1ccc(C(=O)Cn2c(C(=O)c3ccccc3)nc(-c3ccc(OC)cc3)c2-c2ccc(OC)cc2)cc1 | > 100 µM | > 100 µM | > 100 µM | > 100 µM | 64.3 µM | > 100 µM | > 100 µM | > 100 µM | – | – | –
O=C1c2ccccc2C2C1N2C(=O)C(F)(F)F (stereo not drawn) | – | – | – | – | – | – | – | – | > 100 | – | –
CC1=C(C(=O)NCc2ccccc2)C(/C=C/c2ccccc2)C(C(=O)NCc2ccccc2)=C(C)N1 | – | – | – | – | – | – | – | – | – | > 100 | –
CSc1nc2c(c(=O)[nH]1)N=C1c3ccccc3C(=O)C1C(c1ccccc1)N2 (stereo not drawn) | 5.35 µM | > 100 µM | 13.4 µM | > 100 µM | 4.09 µM | > 100 µM | 0.494 µM | 6.91 µM | – | – | –
CCOC(=O)[C@]1(OC(C)=O)C[C@H](OC(C)=O)[C@@H](C(F)COP(=O)(OCc2ccccc2)OCc2ccccc2)O1 (stereo partly drawn) | – | > 100 µM | – | > 100 µM | – | > 100 µM | 18.3 µM and 79.2 µM | 38.2 µM and > 100 µM | – | – | > 100
CC1=C(C(=O)Nc2ccc(Cl)c(Cl)c2)C(c2cccc(Oc3ccccc3)c2)NC(=S)N1 (stereo not drawn) | 5.94 µM | 12.5 µM | 6.88 µM | 13.3 µM | 8.69 µM | 16.6 µM | 7.55 µM | 14.2 µM | – | – | –
c1ccc2cc(-c3cc(-c4cc(-c5ccc6ccccc6c5)on4)no3)ccc2c1 | – | > 100 µM | – | > 100 µM | – | > 100 µM | – | > 100 µM | – | – | > 100
CC1(c2ccc(F)cc2)C(C#N)C(=O)NC(=O)C1C#N (stereo not drawn) | – | – | – | – | – | – | – | – | > 100 | – | –
